Our source for the IC50 and Ki values is PMC2233901 (The Journal of General Physiology, 2004).

Assay type in all cases: cell-based
Assay [1] has as its target T1, mBest2 (mouse bestrophin-2) (Mus musculus, UniProt Q8BGM5, S79T).
T1 sequence (Q8BGM5 1-508 S79T): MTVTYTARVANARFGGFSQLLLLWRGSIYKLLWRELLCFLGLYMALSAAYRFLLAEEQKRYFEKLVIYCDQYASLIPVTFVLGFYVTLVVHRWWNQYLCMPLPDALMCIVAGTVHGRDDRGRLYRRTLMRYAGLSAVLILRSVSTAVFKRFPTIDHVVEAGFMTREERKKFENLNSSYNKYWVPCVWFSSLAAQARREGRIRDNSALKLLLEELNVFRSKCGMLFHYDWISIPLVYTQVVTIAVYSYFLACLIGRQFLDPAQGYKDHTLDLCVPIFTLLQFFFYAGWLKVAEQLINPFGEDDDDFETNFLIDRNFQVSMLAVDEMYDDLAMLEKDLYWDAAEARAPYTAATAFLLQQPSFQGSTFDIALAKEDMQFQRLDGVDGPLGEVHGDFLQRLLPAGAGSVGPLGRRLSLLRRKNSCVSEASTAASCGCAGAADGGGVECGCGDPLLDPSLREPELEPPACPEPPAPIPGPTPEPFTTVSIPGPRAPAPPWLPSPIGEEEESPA
The assay is described as follows: whole-cell patch clamp, block of Cl current in HEK293.

The target in assay [2] is T2, mBest2 (mouse bestrophin-2) (Mus musculus, UniProt Q8BGM5).
T2 sequence (Q8BGM5 1-508): T1 sequence (Q8BGM5 1-508 S79T) with T79S
The description is as above.

In assay [3] the target is T3, mBest2 (mouse bestrophin-2) (Mus musculus, UniProt Q8BGM5, F80R).
T3 sequence (Q8BGM5 1-508 F80R): T1 sequence (Q8BGM5 1-508 S79T) with T79S, F80R
Nature of the assay: whole-cell patch clamp, inhibition of Cl current in HEK293. A general note: The patch-clamp technique gives a direct electrical read-out from membranes.

Numbering of substitutions follows the chain as printed.

As a reminder, the IC50 is the midpoint of a concentration-inhibition curve. Read a low IC50 as greater potency. Take `N#CS` [SCN]: the half-inhibitory concentration (IC50) came out at 18.5 ± 2.7 mM in assay [1] and 9.8 ± 1.1 mM in assay [2].

What is called Ki is a measure of affinity in units of concentration, obtained from inhibition or displacement. High values mean lower affinity, low ones higher affinity. As to `O=S(=O)(O)c1cc(N=C=S)ccc1/C=C/c1ccc(N=C=S)cc1S(=O)(=O)O` [DIDS], the Ki in assay [3] turned out to be 0.016 mM. This lies in the double-digit micromolar range.
